Laboratory results published in patent US6211209A, “Method of inhibiting connective tissue degradation” (Warner-Lambert Company, priority 1998, dated 2001).

Legend:
bovine nasal cartilage = experiment: Bovine nasal cartilage assay: inhibition of IL-1β-induced proteoglycan loss (chondroitin sulfate by 1,9 DMB); assay type: cell-based; conditions: Bos taurus; concentration preventing 50% of proteoglycan loss; IL-1β-stimulated cartilage plugs
Description: The BNC (bovine nasal cartilage) assay provides a model for evaluating chrondroprotective compounds that block cartilage degradation through inhibition of enzyme activity or by altering the gene expression of the matrix metalloproteinases such as stromelysin.
The assay is accomplished in two phases. The cartilage plugs are first incubated with IL-1β in the presence of the compounds of the present method. The amount of proteoglycan released is then quantified by measuring chondroitin sulfate present in the media using the 1,9-Dimethylmethylene Blue Assay (1,9 DMB).
Bovine nasal septum is dissected free of surrounding tissue and wiped with 70% alcohol. A sterile cork borer is used to remove 5-mm cartilage disks of 2- to 3-mm thickness. Explants are equilibrated for 96 hours in F-12 supplemented with 10% fetal calf serum (FCS) and antibiotics at 37° C. in a humidified atmosphere of 95% air and 5% CO2. Explants are then rinsed with 1 mL F-12 Nutrient Mixture (without phenol red) in order to remove traces of FCS. Each treatment group is done in triplicate allowing: controls (500 μL F-12 medium +110 μL PBS with 0.1% BSA +7 μL DMSO); IL-1β (500 μL F-12 medium without phenol red +100 μL IL-1β (500 U) +7 μL DMSO +10 μL PBS with 0.1% BSA); and dose responses (10, 1, and 0.1 μM) (F-12 medium without phenol red +100 μL IL-1β (500 U) +7 μL compound dissolved in DMSO +10 μL PBS with 0.1% BSA), to be tested per each 24-well plate. The cartilage plugs are incubated in the presence of conditioned media (IL-1β+compound) for 48 hours. Fresh unconditioned media (no IL-1β or compound) is added and incubated for an additional 24 hours. Both the conditioned and unconditioned media are collected and saved for analysis using the 1,9 DMB assay.
The ability of a compound to inhibit proteoglycan released from the cartilage plugs is quantified by measuring chondroitin sulfate. This is done using the calorimetric 1,9 DMB assay. Depending on the amount of chondroitin sulfate present in the media a color change will occur turning the normally deep blue dye, vivid pink. This color change is measured using a Titertek Multiscan MCC 340 plate reader at 540 nm. A Cetus Pro/Pette is used to speed dilution and pipetting steps. The Cetus uses Sarstedt vials, designed for radioimmune assays, which have been inserted into Sarstedt 96-vial aluminum racks. The first row of 12 slots is left empty in order to accommodate the chondroitin sulfate standards (0.01-0.32 μg/mL shark chondroitin sulfate in 0.1 M phosphate buffer, pH 7.0, containing 0.01 M L-cysteine HCl and 0.05 M EDTA). It is necessary to dilute (1:5, 1:10) the medium before a […] is performed by adding 10 μL of collected media to 290 μL DMF (16 mg dye/1 L of 0.1 M formate buffer, pH 3.5, containing 5 mL ethanol) and reading at […]. Dilutions are performed on both the 48-hour and 72-hour media samples collected and saved earlier. Once the experiment has been completed, in order to determine the total amount of proteoglycan remaining in the plugs, they are subjected to papain digestion. Cartilage explants are digested in 20-mL glass scintillation vials by adding 50 μL papain in 1.0 mL cysteine buffer (0.01 M phosphate buffer, pH 7.0 containing 0.01 M L-cysteine HCl and 0.05 M EDTA). Digested material is diluted (1:60) and chondroitin sulfate values determined using the 1,9 DMB assay.
Determination of chondroitin sulfate in each sample is accomplished by subtracting the constant value determined from the linear regression performed on the standard curve, from the O.D. value for a particular well, and then dividing by the X coefficient calculated from the linear regression done on the standard curve. Each experimental well is split into two samples for determining chondroitin sulfate values, then the two are averaged. […]

cartilage = experiment: Rabbit model of IL-1α-induced cartilage degradation (intra-articular injection, knee joint); assay type: in vivo; conditions: for Proteoglycan Loss (% Control): 24 hours (IL-1α alone 35.40 ± 3.12)
Description: Rabbits (3.0-3.2 kg) were obtained from Hazelton (Denver, Pa.); Xylazine from W. A. Butler (Columbus, Ohio); Rompun from Miles Inc, (Shawnee Mission, Kans.); Ketamine HCl from Aveco (Fort Dodge Labs, Fort Dodge, Iowa); Pentobarbital from Western Medical Supply (Acadia, Calif.); human recombinant Interleukin-1α (IL-1α) from Genzyme (Cambridge, Mass.); Cetus Pro/Pette (Perkin Elmer, Norwalk, Conn.); Biomek 1000 (Beckman, Fullerton, Calif.).
The assay was performed in two phases. The hind leg knee joints were first injected with IL-1α and compound for 24 hours. The proteoglycan content of cartilage was then quantified by measuring chondroitin sulfate present using the 1,9-Dimethylmethylene Blue Assay (DMB).
Each treatment was done in quadruplicate, necessitating twelve animals per study. Rabbits were anesthetized by injecting intramuscularly 0.9 mL Rompun combined with 1.8 mL Ketoset. Hind leg knee area was shaved and wiped with 70% EtOH and both drug and IL-1α were injected intra-articulary (27-gauge needle) in succession.
0.5 mL DMSO/Saline and 0.5 mL PBS/0.2% FCS.
0.5 mL DMSO/Saline containing 8 μg Compound 1 and 2500 U/0.5 mL IL-1α.
0.5 mL DMSO/Saline containing 8 μg Compound 1 and 0.5 mL PBS/0.2% FCS.
0.5 mL DMSO/Saline containing 24 μg Compound 1 and 0.5 mL IL-1α.
0.5 mL DMSO/Saline containing 24 μg Compound 1 and 0.5 mL PBS/0.2% FCS. […]
The ability of a compound to inhibit proteoglycan release from cartilage pieces was quantified by measuring chondroitin sulfate. […] This color change was measured using a Titertek Multiscan MCC 340 plate reader at 540 nm. […] The DMB assay was performed by adding 10 μL of samples to 290 μL DMB (16 mg dye/L of 0.1 M formate buffer, pH 3.5, containing 5 mL ethanol) and reading at 540 nm. Once the experiment was completed the total amount of proteoglycan remaining in the cartilage pieces was determined by digesting cartilage samples with papain and then performing 1,9 DMB assay on the digest. […] Digested material was diluted (1:5, 1:10, 1:20) and chondroitin sulfate values determined using the 1,9 DMB assay.

- IC50 (bovine nasal cartilage): 830 nM
SMILES: S=c1[nH]nc(-c2ccccc2Nc2ccccc2)o1 [Compound 1, 5-(2-Phenylamino-phenyl)-3H-[1,3,4]oxadiazole-2-thione]
- Proteoglycan Loss (% Control) (cartilage; 8 μg/jt with IL-1α): 18.78 ± 10.98 % Control
- Proteoglycan Loss (% Control) (cartilage; 24 μg/jt with IL-1α, * significantly different from IL-1α alone): 9.35 ± 7.26 % Control
- inhibiting cartilage degradation (cartilage; 8 and 24 μg/joint, 24 hours): effective in inhibiting cartilage degradation in a dose-dependent manner
